Assay results: BigSolDB 2.1

COc1cc([N+](=O)[O-])ccc1N
solubility (mole fraction)
Settings	278.15 K	283.15 K	288.15 K	293.15 K	298.15 K	303.15 K	308.15 K	313.15 K	318.15 K	323.15 K
in isopropanol	0.00186	0.00221	0.00265	0.00322	0.00396	0.00492	0.00595	0.00719	0.00855	0.0101
in water	4.03e-06	5.68e-06	7.36e-06	9.49e-06	1.27e-05	1.74e-05	2.36e-05	3.15e-05	4.23e-05	5.49e-05
